# Starred links: 1 amine or outer side, 2 acyl side, 3 side chain; linkers in the order of their positions; H or OH if unused. Residues, ends and D or L forms follow the SMILES beside them. CO = O=C([*:1])[*:2]
# Legend:
# [1] = tested on: protease of hake flesh with jellied condition; experiment: Inhibition of protease in aqueous extract of hake meat with jellied condition (urea-denatured hemoglobin substrate, Folin method); type: biochemical
# Protocol: North Pacific hake (Merluccius products) on which the sporosa were parasitic was minced and homogenized with two volumes of water. After standing for 2 hours, the homogenate was centrifuged (15,000 xg, 20 minutes) under cooling condition, and the supernatant was dialyzed against tap water for 24 hours. The residual liquid remaining after the dialysis was heated at 50° C. for 20 minutes. The resulting precipitate was removed under cooling by centrifuge (15,000 xg, 30 minutes). The supernatant liquid was designated an aqueous extract of fish meat with jellied condition.
# Separately, 3 ml of Mclvaine buffer solution (pH=3) was added to 1 ml of urea-denatured bovine hemoglobin (at a concentration of 4%) to prepare a substrate solution. 1 ml of a 1:1 mixture of the above obtained extract and a solution of various TPI was added to the above prepared substrate solution. The resulting mixture was incubated at 40° C. for 5 minutes. Thereafter, 5 ml of a 5% trichloroacetic acid was added to the mixture to allow the reaction to stop. The reaction mixture was left to stand for 30 minutes at room temperature. Then, the mixture was filtered through a filter paper (Toyo filter paper No. 5C). 1 ml of the filtrate was colorometrically determined at a wave length of 660 mμ by a Folin method.
# The protease inhibition ratio of various proteolytic activity of the TPI is expressed as the […] relative activity with respect to 100 of the activity of an extract prepared by adding water instead of the TPI solution. That is, [formula]
# [2] = tested on: proteolytic enzyme of yellowfin sole meat with jellied condition; experiment: Proteolytic enzyme activity of treated fish meat, yellowfin sole; type: biochemical, yellowfin sole (Limanda aspera)
# Description: (§1) The quantity of the TPI added generally also depends upon the concentration of a proteolytic enzyme of fish meat contaminated with sporozoa. For example, North Pacific hake on which sporozoa are parasitic has a proteolytic enzyme activity of from a low level up to 30,000 units.
# One hundred North Pacific frozen yellowfin sole containing a large number of spots of jellied condition in their muscles were thawed. These flatfish were gutted and the abdominal pores were washed.
# During the dipping, the flatfish were irradiated with supersonic waves having a frequency of 18 KC for 10 minutes by using the same magnetostriction type supersonic wave oscillator as described in Example 2. Thereafter, the flatfish were drained. Then, these fish were dried at 15° C. in a low temperature dryer dehydromaster to obtain dried flatfish with salt.
# 350 Kg of the flatfish was headed and gutted and the meat was collected by means of a fish meat separator. […] As described in Example 9, this fish meat was twice soaked in cold water in a quantity two times that of the meat and drained to obtain 130 Kg of hydroextracted meat.
# A solution of 0.6 g of antipain in 1 l of water was added to 60 Kg of each sample of the hydroextracted meat and the mixture was uniformly mixed. 10 Kg of the mixture was packed in a polyethylene bag to obtain a raw kneaded meat. A control was prepared in the same manner except that 1 l of water alone was added.
# These raw kneaded meats were stored in a refrigerator at a temperature of from 4° to 5° C. for 24 hours. Thereafter, these meats were removed from the refrigerator. Then, 1.5 Kg of sodium chloride, 2.5 Kg of sugar, 4.0 Kg of starch, 1.2 Kg of mirin (sweet sake) and 0.5 Kg of sodium glutamate were added to 50 Kg of each of the raw kneaded meats, and the mixture was ground and formed into "itatuki-kamaboko" according to a conventional method.
# [3] = tested on: proteolytic enzyme of Pacific hake meat with jellied condition; experiment: Proteolytic enzyme activity of treated fish meat, Pacific hake; type: biochemical; conditions: Example 11; soaked 10 minutes in 200 l cold water with 100 g sodium hydrogensulfite; control 3,200 units
# Description: as §1
# The resulting fish was subjected to a fillet making machine to obtain skinless fillets. […] Each fillet sample was washed with water containing 0.05% of sodium sulfite. […]
# Then, fish meat was collected from the thawed hake by means of a fish meat separator. […] The fish meat was soaked in cold water in a quantity two times that of the meat and drained, and it was again soaked in cold water in the same quantity and drained to obtain 105 Kg of hydroextracted meat. […]
# The frozen testing and control kneaded meats thus obtained were thawed and subjected to a model estimation method of elasticity. In testing the elasticity, the kneaded meats are usually formed into a model product of a Japanese style fish meat paste and the model product is evaluated for quality.
# 200 Kg of the frozen fillet of the same Pacific hake as that described in Example 9 was thawed. […] Then, the fish meat was soaked in cold water in a quantity two times that of the meat and drained. […] The first portion was soaked in cold water in a quantity two times that of the meat and drained to obtain 50 Kg of hydroextracted meat as a control. […]
# [4] = concentration 0.01%, 40° C., 5 minutes, pH 3
# [5] = concentration 0.002%, 40° C., 5 minutes, pH 3
# [6] = aqueous fish meat extract, pH 3, 5 min
# [7] = concentration 0.02%, 40° C., 5 minutes, pH 3
compound,measurement,setting,value
N.O.O.O.O.O.O.O.O.O.O.O.O.O=S(=O)([O-])O.O=S(=O)([O-])[O-].[Al+3] [ammonium alum],inhibition ratio (%),[1]; [4],89.8%
N.N.O=S(=O)(O)OOS(=O)(=O)O [ammonium persulfate],inhibition ratio (%),"[1]; concentration 0.015%, 40° C., 5 minutes, pH 3",91.7%
CC(C)[C@H](NC(=O)[C@H](CCCNC(=N)N)NC(=O)N[C@@H](Cc1ccccc1)C(=O)O)C(=O)N[C@H](C=O)CCCNC(=N)N [antipain] ({Phe-CO}-Arg-Val-Arg-aldehyde),inhibition ratio (%),[1]; [5],72.9%
same,proteolytic enzyme activity of raw kneaded meat,"[2]; Example 12, 0.6 g antipain in 1 l water per 60 Kg hydroextracted meat, control 1,140 units",980 units
same,proteolytic enzyme activity of ground meat,"[2]; Example 12, after 24 hours at 4° to 5° C. and grinding with salt, sugar, starch, control 1,080 units",23 units
O=C(OOC(=O)c1ccccc1)c1ccccc1 [benzoyl peroxide],inhibition ratio (%),[1]; [4],82.3%
[Ca+2].[O-]Cl.[O-]Cl [calcium hypochlorite],inhibition ratio (%),[1]; [4],98.1%
[O]=[Ca] [calcium oxide],inhibition ratio (%),[1]; [4],100.0%
[O][Cl+][O-] [chlorine dioxide],inhibition ratio (%),[1]; [4],100.0%
OO [hydrogen peroxide],inhibition ratio (%),"[1]; concentration 0.001%, 40° C., 5 minutes, pH 3",86.8%
same,inhibition ratio (%),[1]; [4],100.0%
OCl [hypochlorous acid],inhibition ratio (%),[1]; [4],88.5%
"CC(=O)N[C@@H](CC(C)C)C(=O)N[C@@H](CC(C)C)C(=O)N[C@H](C=O)CCCNC(=N)N [leupeptin, reference compound]",inhibition ratio (%),[1]; [5],99.0%
"[K+].[K+].[O]=[Cr](=[O])([O-])[O][Cr](=[O])(=[O])[O-] [potassium dichromate, reference compound]",inhibition of the activity of the protease produced by the sporozoa (in words),[1],high inhibition
same,inhibition ratio (%),[1]; [6],96.1%
"O=[N+]([O-])[O-].[K+] [potassium nitrate, reference compound]",inhibition ratio (%),[1]; [4],-1.4%
O=S([O-])O.[Na+] [sodium hydrogen sulfite],inhibition ratio (%),[1]; [7],96.1%
same,proteolytic enzyme activity of hydroextracted meat,[3],840 units
OCl [sodium hypochlorite],inhibition ratio (%),[1]; [4],87.8%
O=S([O-])S(=O)(=O)[O-].[Na+].[Na+] [sodium metabisulfite],inhibition ratio (%),"[1]; concentration 0.05%, 40° C., 5 minutes, pH 3",96.2%
O=NO [sodium nitrite],inhibition ratio (%),[1]; [6],90.2%
O=S([O-])[O-].[Na+].[Na+] [sodium sulfite],inhibition ratio (%),[1]; [7],93.4%
chymostatin [reference compound],inhibition ratio (%),[1]; [5],97.0%
same,proteolytic enzyme activity of dried flatfish with salt whose muscle was softened and partially depressed,"[2]; Example 7, dipped 2 hours in 10% sodium chloride containing 0.01% chymostatin, supersonic waves 18 KC 10 minutes, muscles had 5,000 units before",120 units
sodium chlorite,inhibition ratio (%),[1]; [4],100.0%

# Source: US4284653A, “Process for handling and processing fish meat” (Nippon Suisan Kabushiki Kaisha, priority 1979, dated 1981)
